Measured values: publication PMC9775652, “Concomitant Administration of Red Ginseng Extract with Lactic Acid Bacteria Increases the Plasma Concentration of Deglycosylated Ginsenosides in Healthy Human Subjects” (Biomolecules, 2022)
Like-named read-outs stand apart in the source and are kept apart here.

Experiments:
P-gp = target: T1, P-gp (Homo sapiens, UniProt P08183); assay: Transport of ginsenosides in P-gp-overexpressing LLC-PK1-P-gp cells; type: in vitro ADME; conditions: pig
T1 construct: host or cells: LLC-PK1-P-gp cells (passage no. 25–28)
Protocol: (§1) LLC-PK1-P-gp cells (passage no. 25–28) were seeded onto collagen-coated permeable support (1.0 μm pore size) in 24-well plates at a density of 2.5 × 10^4 cells/insert and grown for 5 days with TEER values of over 500 Ω·cm^2 [24]. The A to B transport and B to A transport of GRg3, GRh2, CK, PPD, GRg1, GRh1, and PPT (20 μM each) were measured as previously described. The concentration dependency in the B to A transport of GRh2, CK, PPD, and PPT was measured in the range of 6.25–200 μM for GRh2, CK, PPD, and PPT.
(§2) For the transport study of ginsenosides in CaCo-2 cells and LLC-PK1-P-gp cells, the ginsenoside transport rate in the A to B or B to A directions was calculated from the slope of the regression line from the mean transported amounts versus time plot. The apparent permeability (Papp) was calculated using Equation (1). (1) Papp (×10^−6 cm/s)=transport rate (nmol/min)/concentration(μM)×area(cm^2)×60s
(§3) The efflux ratio was calculated by dividing the Papp of ginsenosides from the B to A direction by that from the A to B direction.
(§4) To measure the kinetic parameters of the concentration dependence on the P-gp-mediated ginsenoside efflux, the ginsenoside transport rate in the B to A direction (ν) versus the ginsenoside concentration (S) plot was fitted in the Michaelis–Menten Equation (2) using Sigma Plot (version 12.0, Systat Software Inc. Chicago, IL, USA). (2) ν=Vmax×S/Km+S

[1] = rat, in vivo, po; cited from earlier work
[2] = Pharmacokinetic study of ginsenosides in healthy humans after repeated oral RGE with or without LAB; type: in vivo, human; conditions: human, in vivo, po; for AUC: 104.1 mg
Protocol: A single-sequence study consisting of two periods was conducted on five healthy male subjects (body weight > 50 kg and age > 19 years) for 29 days. During the first period of the study (RGE treatment group), three pouches of RGE (30 mL, 104.1 mg of total ginsenosides) were administered to 5 subjects once daily for 14 days. On the 14th day, the subjects were admitted to the Clinical Trial Center of KNUH at 7 AM and underwent the last RGE administration at approximately 8–9 AM. Blood samples (approximately 3 mL) were collected at 0, 4, 6, 8, 10, 12, 13, 14, and 24 h after the last dose. A saline-locked angiocatheter was placed on the forearm of each subject’s hand. After discarding 1 mL of blood derived from the catheter, 3 mL of blood was drawn into a vacutainer tube containing heparin and centrifuged at 3000× g for 10 min. The supernatant plasma samples were stored at −80 °C until ginsenoside analysis.
In the second half of the study (RGE + LAB treatment group), 3 pouches of RGE (30 mL, 104.1 mg of total ginsenosides) and 1 pouch of LAB (1 billion CFU/2 g) were co-administered once daily for 14 days. On the […], the subjects were admitted to the Clinical Trial Center of KNUH at 7 AM and received the last red ginseng dose at approximately 8–9 AM. Blood samples (approximately 3 mL) were withdrawn at 0, 4, 6, 8, 10, 12, 13, 14, and 24 h intervals after the last dose and centrifuged at 3000× g for 10 min; the supernatant plasma samples were stored at −80 °C.
Briefly, to analyze GRb1, GRb2, GRc, GRd, GRe, GRf, GRg1, GRg3, GF1, and GF2, 400 μL of an internal standard (IS; 0.05 ng/mL berberine in methanol) was added to 100 μL of plasma. The mixture was vortexed for 15 min and centrifuged at 16,000× g for 5 min. After centrifugation, 400 μL of the supernatant was evaporated using a speed-dry vacuum concentrator (Christ, Osterode am Harz, Germany). The residue was reconstituted using 200 μL of 70% methanol supplemented with 0.1% formic acid, and a 10 μL aliquot was injected into the LC-MS/MS system. Chromatographic separation was performed using a Polar RP column (150 × 2.0 mm, 4.0 μm particle size; Phenomenex, Torrance, CA, USA) using a mobile phase consisting of 0.1% formic acid in water (phase A) and 0.1% formic acid in methanol (phase B). The following elution gradient was used: 69% of phase B for 0–2.0 min, 69–85% of phase B for 2.0–4.0 min, and 85–69% of phase B for 6.0–6.5 min. The flow rate was 0.27 mL/min.
The mixture was vortexed for 10 min and centrifuged at 16,000× g for 5 min. After centrifugation, the samples were frozen at −80 °C for 4 h. The upper layer was transferred to a clean tube and evaporated. The residue was reconstituted using 200 μL of 80% methanol supplemented with 0.1% formic acid, and a 10 μL aliquot was injected into the LC-MS/MS system. Chromatographic separation was performed using a Luna C18 column (150 × 2.0 mm, 3.0 μm particle size; Phenomenex, Torrance, CA, USA) and using a mobile phase consisting of water containing 0.1% formic acid: methanol containing 0.1% formic acid = 8:92 (v/v) at a flow rate of 0.15 mL/min.
The quantification of ginsenosides was carried out using multiple reaction monitoring in positive ionization mode, as previously described.
Finally, pharmacokinetic parameters were calculated using non-compartmental methods (WinNonlin version 5.1; Pharsight Co., Certara, NJ, USA). Statistical analysis was performed by Student’s t-test to compare the two groups using IBM SPSS Statistics for Windows (version 25.0; IBM Corp., Armonk, NY, USA). Differences were considered significant at p < 0.05.

LAB [3] = assay: Incubation of individual ginsenosides with LAB (metabolic pathway); type: in vitro ADME; conditions: individual ginsenoside 10 μM with LAB (1 billion CFU), 7 days; GF2 to CK, CK to PPD, GRg1 to GRh1; result in words
Protocol: (§5) To identify the effects of LAB on ginsenoside metabolism, an in vitro fermentation study was performed according to the method of Jeon et al., with slight modifications. Briefly, RGE (10 mL, 1 pouch) and 2 g LAB (containing 1 billion CFU) were suspended in 10 mL autoclaved MRS broth (550 mg broth powder dissolved in 10 mL water). For the 15 ginsenosides, individual ginsenosides (10 μM each) and 2 g of LAB were suspended in 20 mL of autoclaved MRS broth (550 mg broth powder dissolved in 20 mL water). The mixture was incubated for 7 days in a shaking incubator at 37 °C and 300 rpm, and a 0.1 mL aliquot of the incubation mixture was collected on days 0, 3, 5, and 7. The incubation medium was diluted 100-fold with distilled water and stored at −80 °C to analyze ginsenosides using the LC-MS/MS system.
(§6) To measure the metabolic activity of ginsenosides, the formation rate of ginsenosides (pmol/day) was calculated by dividing the slope of the regression line by the amount of deglycosylated ginsenosides versus the incubation time plot by the initial concentration of individual ginsenosides.

[4] = Transport (permeability) of ginsenosides in CaCo-2 cell monolayers; type: in vitro ADME; conditions: human
Protocol: (§7) CaCo-2 cells (passage no 41–43) were seeded onto collagen-coated permeable support (1.0 μm pore size) in a 24-well plate at a density of 2.5 × 10^4 cells/insert and cultured for 21 days in Dulbecco’s modified eagle’s medium supplemented with 10% fetal bovine serum, 1% non-essential amino acids, and 1% penicillin-streptomycin at 37 °C in a humidified atmosphere (5% CO2/95% air). After confirming that the transepithelial electrical resistance (TEER) of the CaCo-2 cell monolayer was over 400 Ω·cm^2, Apical to basal (A to B) transport and B to A transport of ginsenosides using 50 µM, GRb1 was investigated as previously described. The same permeability study was performed using 50 µM GRb2, GRc, GRd, GRg3, GRh2, GF2, CK, PPD, GRe, GRf, GRg1, GRh1, GF1, or PPT.
as §2, §3

LAB [5] = assay: In vitro RGE fermentation with LAB; type: in vitro ADME
Protocol: as §5, §6

CaCo-2 cells = assay: Transport (permeability) of ginsenosides in CaCo-2 cell monolayers; type: in vitro ADME; conditions: Caco-2
Protocol: as §7, §2, §3

[6] = test system: T2, CC(C)=CCCC(C)(O)C1CCC2(C)C1C(O)CC1C3(C)CCC(O)C(C)(C)C3CCC12C; assay: Transport of ginsenosides in P-gp-overexpressing LLC-PK1-P-gp cells; type: in vitro ADME; conditions: other: B to A transport rate in LLC-PK1-P-gp cells, 6.25–200 μM, Michaelis–Menten fit
T2 construct: host or cells: LLC-PK1-P-gp cells (passage no. 25–28)
Protocol: as §1, §2, §3, §4

[7] = test system: T3, CC(C)=CCCC(C)(OC1OC(CO)C(O)C(O)C1O)C1CCC2(C)C1C(O)CC1C3(C)CCC(O)C(C)(C)C3CCC12C; assay: as above; type: in vitro ADME; conditions: other: B to A transport rate in LLC-PK1-P-gp cells, 6.25–200 μM, Michaelis–Menten fit
T3 construct: host or cells: LLC-PK1-P-gp cells (passage no. 25–28)
Protocol: as §1, §2, §3, §4

[8] = test system: T4, CC(C)=CCCC(C)(O)C1CCC2(C)C1C(O)CC1C3(C)CCC(O)C(C)(C)C3C(O)CC12C; assay: as above; type: in vitro ADME; conditions: other: B to A transport rate in LLC-PK1-P-gp cells, 6.25–200 μM, Michaelis–Menten fit
T4 construct: host or cells: LLC-PK1-P-gp cells (passage no. 25–28)
Protocol: as §1, §2, §3, §4

[9] = test system: T5, [H][C@@]1(O[C@H]2CC[C@]3(C)[C@@]4([H])C[C@@H](O)[C@]5([H])[C@@]([H])([C@@](C)(O)CCC=C(C)C)CC[C@@]5(C)[C@]4(C)CC[C@@]3([H])C2(C)C)O[C@H](CO)[C@@H](O)[C@H](O)[C@H]1O; assay: as above; type: in vitro ADME; conditions: other: B to A transport rate in LLC-PK1-P-gp cells, 6.25–200 μM, Michaelis–Menten fit
T5 construct: host or cells: LLC-PK1-P-gp cells (passage no. 25–28)
Protocol: as §1, §2, §3, §4

[10] = RGE incubated with LAB (1 billion CFU) for 7 days at 37 °C, result in words

T1 sequence (P08183 whole entry): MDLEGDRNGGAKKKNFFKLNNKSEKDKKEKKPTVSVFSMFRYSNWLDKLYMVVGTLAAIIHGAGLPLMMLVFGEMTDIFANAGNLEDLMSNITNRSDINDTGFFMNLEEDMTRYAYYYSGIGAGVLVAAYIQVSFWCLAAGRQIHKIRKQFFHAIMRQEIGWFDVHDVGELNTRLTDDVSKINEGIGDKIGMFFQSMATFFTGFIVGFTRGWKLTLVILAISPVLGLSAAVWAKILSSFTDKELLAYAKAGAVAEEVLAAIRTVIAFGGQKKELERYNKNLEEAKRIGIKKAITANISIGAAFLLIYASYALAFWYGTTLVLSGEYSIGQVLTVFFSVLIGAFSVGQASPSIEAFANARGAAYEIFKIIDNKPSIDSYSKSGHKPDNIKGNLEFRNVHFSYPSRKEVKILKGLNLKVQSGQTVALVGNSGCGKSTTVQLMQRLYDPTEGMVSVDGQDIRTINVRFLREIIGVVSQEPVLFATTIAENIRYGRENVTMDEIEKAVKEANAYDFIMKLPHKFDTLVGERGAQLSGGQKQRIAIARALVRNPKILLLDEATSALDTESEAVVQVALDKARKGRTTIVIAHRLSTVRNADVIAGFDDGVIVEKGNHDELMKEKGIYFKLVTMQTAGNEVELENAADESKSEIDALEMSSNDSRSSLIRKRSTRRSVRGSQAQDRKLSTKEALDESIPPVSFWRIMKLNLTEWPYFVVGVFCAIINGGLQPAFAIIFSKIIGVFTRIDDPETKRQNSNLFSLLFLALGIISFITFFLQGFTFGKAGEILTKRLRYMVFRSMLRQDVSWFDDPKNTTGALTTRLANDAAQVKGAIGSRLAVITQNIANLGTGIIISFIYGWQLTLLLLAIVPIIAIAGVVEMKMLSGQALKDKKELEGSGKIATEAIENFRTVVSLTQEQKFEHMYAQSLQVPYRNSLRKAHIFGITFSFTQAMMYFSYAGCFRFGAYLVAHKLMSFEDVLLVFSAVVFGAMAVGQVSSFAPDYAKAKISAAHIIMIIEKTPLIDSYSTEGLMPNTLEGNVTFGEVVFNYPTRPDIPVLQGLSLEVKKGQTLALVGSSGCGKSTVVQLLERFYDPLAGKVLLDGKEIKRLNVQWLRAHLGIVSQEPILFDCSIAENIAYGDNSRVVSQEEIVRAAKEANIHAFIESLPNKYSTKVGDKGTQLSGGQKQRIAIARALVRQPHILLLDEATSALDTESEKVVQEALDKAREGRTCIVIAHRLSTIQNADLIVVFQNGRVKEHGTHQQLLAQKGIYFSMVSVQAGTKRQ

## CC(C)=CCCC(C)(OC1OC(CO)C(O)C(O)C1O)C1CCC2(C)C1C(O)CC1C3(C)CCC(O)C(C)(C)C3CCC12C (stereo not drawn) [CK, compound K]
P-gp; LLC-PK1
  Papp A→B at 20 μM: 0.14 ×10⁻⁶ cm/s
  Papp B→A at 20 μM: 8.25 ± 0.58 ×10⁻⁶ cm/s
P-gp; llc-pk1
  CLint (intrinsic clearance): 690 µL/min
[1]
  Oral BA: 4.3%
[2]; male
  Cmax: 5.1 ± 2.2 ng/mL
  AUC: 57.9 ± 16.6 ng·h/mL
[2]; male, MRT
  MRT: 17.2 ± 4.5 h
[2]; male, Tmax
  Tmax: 8 ± 4 h
LAB [3]
  LAB-mediated deglycosylation (formation of deglycosylated ginsenoside from the incubated ginsenoside): the highest

## CC(C)=CCCC(C)(OC1OC(CO)C(O)C(O)C1O)C1CCC2(C)C1C(O)CC1C3(C)CCC(OC4OC(CO)C(O)C(O)C4O)C(C)(C)C3CCC12C (stereo not drawn) [GF2]
[4]; Caco-2
  Papp A→B at 50 µM: < 0.3 ×10⁻⁶ cm/s
LAB [5]; [10]
  Relative abundance / metabolic activity following fermentation of RGE with LAB: remained unchanged
LAB [3]
  LAB-mediated deglycosylation (formation of deglycosylated ginsenoside from the incubated ginsenoside): negligible

## CC(C)=CCC[C@](C)(O[C@@H]1O[C@H](CO)[C@@H](O)[C@H](O)[C@H]1O)[C@H]1CC[C@]2(C)[C@@H]1[C@H](O)C[C@@H]1[C@@]3(C)CC[C@H](O[C@@H]4O[C@H](CO)[C@@H](O)[C@H](O)[C@H]4O[C@@H]4O[C@H](CO)[C@@H](O)[C@H](O)[C@H]4O)C(C)(C)[C@@H]3CC[C@]12C [GRd]
[1]
  Oral bioavailability (BA): less than 5%
CaCo-2 cells
  A to B Papp: below 0.3 × 10^−6 cm/s
LAB [5]
  Relative abundance / metabolic activity following fermentation of RGE with LAB: marked decrease
[2]
  Cmax: 2.1 ± 0.9 ng/mL
  MRT: 18.2 ± 1.4 h
  Tmax: 7.5 ± 5.8 h
  AUC: 37.9 ± 12.6 ng·h/mL

## CC(C)=CCCC(C)(OC1OC(CO)C(O)C(O)C1O)C1CCC2(C)C1C(O)CC1C3(C)CCC(O)C(C)(C)C3C(OC3OC(CO)C(O)C(O)C3O)CC12C (stereo not drawn) [GRg1]
P-gp; LLC-PK1, LLC-PK1-P-gp cells, 20 μM, B to A Papp divided by A to B Papp, read-out: ER
  efflux ratio at 20 μM: 1
P-gp; LLC-PK1-P-gp cells, 20 μM, mean ± SD, n = 3, read-out: A to B permeability
  Papp A→B at 20 μM: 0.1 ± 0.02 ×10⁻⁶ cm/s
P-gp; LLC-PK1-P-gp cells, 20 μM, mean ± SD, n = 3, read-out: B to A permeability
  Papp B→A at 20 μM: 0.1 ± 0.03 ×10⁻⁶ cm/s
[4]; CaCo-2 cell monolayers, 50 µM ginsenoside, read-out: A to B Papp
  Papp A→B at 50 µM: < 0.3 ×10⁻⁶ cm/s
LAB [5]; [10]
  Relative abundance / metabolic activity following fermentation of RGE with LAB: marked decrease
LAB [3]
  LAB-mediated deglycosylation (formation of deglycosylated ginsenoside from the incubated ginsenoside): the highest

## P-gp (Homo sapiens)
[6]
  Km: 76 µM
  Vmax: 0.40 nmol/min
[7]
  Km: 98 µM
  Vmax: 67.7 nmol/min
[8]
  Km: 83 µM
  Vmax: 19.2 nmol/min
[9]
  Km: 151 µM
  Vmax: 75.9 nmol/min
